35 molecules from patent US20130116241A1, “NOVEL INHIBITOR COMPOUNDS OF PHOSPHODIESTERASE TYPE 10A” (AbbVie Inc., priority 2011, published 2013) can be followed below.

pIC50: −log10 of the molar value.

The assay deals with human PDE10A (UniProt Q9Y233). As to the kind of experiment: Measurement of PDE activity (recombinant enzyme, HTRF cAMP kit). Conditions: Table 1, substrate 20 nM for PDE10, 60 minutes at 29 C, read-out: IC50. The format is biochemical. As for the experimental part: The recombinant PDE proteins are used in in vitro enzymatic reaction for measurement of PDE activity. These recombinant proteins, including PDE10A (human, rat and mouse PDE10) and isoforms of PDEs 1, 3, 4, and 5, were purchased from commercial vendor BPS Bioscience. The enzymatic activity of PDEs was determined by cAMP measurement kit from CisBio (IBA) using HTRF technology.
human PDE10A, sequence (Q9Y233 290-1055 limits assumed): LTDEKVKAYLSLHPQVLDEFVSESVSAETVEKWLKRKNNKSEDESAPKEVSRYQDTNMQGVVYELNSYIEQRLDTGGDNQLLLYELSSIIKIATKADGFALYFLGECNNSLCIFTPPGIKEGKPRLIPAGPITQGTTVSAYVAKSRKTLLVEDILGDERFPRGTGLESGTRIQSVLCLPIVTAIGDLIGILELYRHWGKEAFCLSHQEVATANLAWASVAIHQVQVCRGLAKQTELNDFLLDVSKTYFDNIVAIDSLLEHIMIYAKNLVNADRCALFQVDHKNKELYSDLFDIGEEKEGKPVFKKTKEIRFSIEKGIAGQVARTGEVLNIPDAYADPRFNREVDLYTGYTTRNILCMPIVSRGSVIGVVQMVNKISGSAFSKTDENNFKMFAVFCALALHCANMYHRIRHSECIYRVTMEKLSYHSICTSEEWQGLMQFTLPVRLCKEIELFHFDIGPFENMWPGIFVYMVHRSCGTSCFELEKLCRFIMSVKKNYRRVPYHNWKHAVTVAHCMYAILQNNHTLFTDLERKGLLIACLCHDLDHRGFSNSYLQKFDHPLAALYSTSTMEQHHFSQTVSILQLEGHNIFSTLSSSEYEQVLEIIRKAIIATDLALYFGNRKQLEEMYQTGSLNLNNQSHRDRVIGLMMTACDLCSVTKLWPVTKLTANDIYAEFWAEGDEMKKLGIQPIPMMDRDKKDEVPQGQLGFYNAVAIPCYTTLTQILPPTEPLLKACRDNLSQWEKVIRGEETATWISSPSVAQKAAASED
The PDE enzymatic reaction was carried out in assay buffer (20 mM Tris-HCl pH7.5, 10 mM MgCl2, 0.1% bovine serum albumin) containing enzyme and substrate. The PDE enzymes concentration ranged from 10 pM-250 pM, depending on each enzyme's specific activity. The substrate cyclic nucleotide (cAMP or cGMP) concentration used in the assay was 20 nM for PDE10, and 100 nM for other PDEs. The inhibitory effect of compound was determined by incubating various concentration of inhibitor in the enzymatic assay. Typically, compound was serial diluted in DMSO then further diluted in assay buffer. Next, the compound at varying concentration was mixed with PDE enzyme. The reaction was initiated by addition of cyclic nucleotide substrate, and incubated for 60 minutes at 29 C. The reaction was stopped by addition of lysis buffer from assay kit. The cAMP-d2 and anti-cAMP cryptate in the lysis buffer detected the level of cAMP left from the PDE hydrolysis reaction. The PDE activity is reversely correlated with the amount of cAMP left in the reaction and can be converted to the percent activity of an uninhibited control (100%). Thus, IC50 value of inhibitor can be obtained by plotting inhibitor concentration against PDE activity at that concentration.
A general note: In TR-FRET formats the signal depends on donor and acceptor labels being close together.
Usually pIC50 stands for the IC50 on a negative log10 scale, so that one unit is a factor of ten. As to `O=c1c2c(-c3cncnc3)cccc2c(Cl)cn1C1CC1c1ccc2ccccc2n1` (single isomer, unassigned) [Example 276, anti (−)-4-chloro-8-(pyrimidin-5-yl)-2-(2-(quinolin-2-yl)cyclopropyl)isoquinolin-1(2H)-one], the pIC50 was > 7.00.
As to `O=c1c2c(-c3ccncc3)cccc2ccn1C1CC1c1ccc2ccccc2n1` (single isomer, unassigned; (+)) [Example 222a, (+) 8-(pyridin-4-yl)-2-(2-(quinolin-2-yl)cyclopropyl)isoquinolin-1(2H)-one], the pIC50 is > 7.00.
In the case of `O=c1c2c(NC3COC3)cccc2ccn1C1CC1c1ccc2ccccc2n1` (single isomer, unassigned; (+)) [Example 235a, (+) anti 8-(oxetan-3-ylamino)-2-(2-(quinolin-2-yl)cyclopropyl)isoquinolin-1(2H)-one], the negative-log IC50 (pIC50) is > 7.00.
Then `O=c1c2c(-c3cccnc3)cccc2ccn1C1CC1c1ccc2ccccc2n1` (single isomer, unassigned; (+)) [Example 239a, (+) anti 8-(pyridin-3-yl)-2-(2-(quinolin-2-yl)cyclopropyl)isoquinolin-1(2H)-one], with 6.70 to 7.00; and `O=c1c2c(-c3ccncc3)cccc2ccn1C1CC1c1ccc2ccccc2n1` (single isomer, unassigned; (-)) [Example 222b, (−) 8-(pyridin-4-yl)-2-(2-(quinolin-2-yl)cyclopropyl)isoquinolin-1(2H)-one], with > 7.00; and `O=c1c2c(-c3cccnc3)cccc2ccn1C1CC1c1ccc2ccccc2n1` (single isomer, unassigned; (-)) [Example 239b, (−) anti 8-(pyridin-3-yl)-2-(2-(quinolin-2-yl)cyclopropyl)isoquinolin-1(2H)-one], with > 7.00.
As to `O=c1c2c(-c3ccncc3)csc2c(-c2ccncc2)nn1CCc1ccc2ccccc2n1` [Example 1, 3,7-Di(pyridin-4-yl)-5-[2-(quinolin-2-yl)ethyl]thieno[2,3-d]pyridazin-4(5H)-one], the pIC50 was > 7.00.
As to `O=c1c2ccsc2c(-c2ccncc2)nn1CCc1ccc2ccccc2n1` [Example 2, 7-(Pyridin-4-yl)-5-[2-(quinolin-2-yl)ethyl]thieno[2,3-d]pyridazin-4(5H)-one], the pIC50 is > 7.00.
Take `O=c1c2c(-c3ccncc3)csc2cnn1CCc1ccc2ccccc2n1` [Example 3, 3-(Pyridin-4-yl)-5-[2-(quinolin-2-yl)ethyl]thieno[2,3-d]pyridazin-4(5H)-one]: the pIC50 was > 7.00.
`O=c1c2c(-c3ccncc3)csc2c(-c2ccncc2)nn1CCc1ccccn1` [Example 5, 3,7-Di(pyridin-4-yl)-5-[2-(pyridin-2-yl)ethyl]thieno[2,3-d]pyridazin-4(5H)-one]: the pIC50 is > 7.00.
Turning to `Cc1ccc(-c2csc3cnn(CCc4ccc5ccccc5n4)c(=O)c23)cc1` [Example 7, 3-(4-methylphenyl)-5-[2-(quinolin-2-yl)ethyl]thieno[2,3-d]pyridazin-4(5H)-one], the pIC50 is 6.30 to 6.70.
As for `CC(C)c1ccc(-c2csc3cnn(CCc4ccc5ccccc5n4)c(=O)c23)cc1` [Example 8, 3-[4-(propan-2-yl)phenyl]-5-[2-(quinolin-2-yl)ethyl]thieno[2,3-d]pyridazin-4(5H)-one], the figure is > 7.00; as for `N#Cc1ccc(-c2csc3cnn(CCc4ccc5ccccc5n4)c(=O)c23)cc1` [Example 10, 4-{4-oxo-5-[2-(quinolin-2-yl)ethyl]-4,5-dihydrothieno[2,3-d]pyridazin-3-yl}benzonitrile], > 7.00; as for `COc1ccc(-c2csc3cnn(CCc4ccc5ccccc5n4)c(=O)c23)cc1` [Example 11, 3-(4-methoxyphenyl)-5-[2-(quinolin-2-yl)ethyl]thieno[2,3-d]pyridazin-4(5H)-one], 6.70 to 7.00.
On to `O=c1c2c(-c3ccc(F)cc3)csc2cnn1CCc1ccc2ccccc2n1` [Example 12, 3-(4-fluorophenyl)-5-[2-(quinolin-2-yl)ethyl]thieno[2,3-d]pyridazin-4(5H)-one], for which the pIC50 is > 7.00.
Turning to `N#CCc1ccc(-c2csc3cnn(CCc4ccc5ccccc5n4)c(=O)c23)cc1` [Example 15, (4-{4-oxo-5-[2-(quinolin-2-yl)ethyl]-4,5-dihydrothieno[2,3-d]pyridazin-3-yl}phenyl)acetonitrile], the pIC50 was 6.30 to 6.70.
Regarding `O=c1c2c(-c3ccc(O)cc3)csc2cnn1CCc1ccc2ccccc2n1` [Example 16, 3-(4-hydroxyphenyl)-5-[2-(quinolin-2-yl)ethyl]thieno[2,3-d]pyridazin-4(5H)-one], the pIC50 is > 7.00.
Consider `O=c1c2c(-c3ccccc3Cl)csc2cnn1CCc1ccc2ccccc2n1` [Example 17, 3-(2-chlorophenyl)-5-[2-(quinolin-2-yl)ethyl]thieno[2,3-d]pyridazin-4(5H)-one], for which the pIC50 is 6.70 to 7.00.
As for `Cc1ccccc1-c1csc2cnn(CCc3ccc4ccccc4n3)c(=O)c12` [Example 18, 3-(2-methylphenyl)-5-[2-(quinolin-2-yl)ethyl]thieno[2,3-d]pyridazin-4(5H)-one], the pIC50 was 6.30 to 6.70.
As for `O=c1c2c(-c3ccccc3F)csc2cnn1CCc1ccc2ccccc2n1` [Example 20, 3-(2-fluorophenyl)-5-[2-(quinolin-2-yl)ethyl]thieno[2,3-d]pyridazin-4(5H)-one], the figure is > 7.00.
On to `O=c1c2c(-c3ccccc3O)csc2cnn1CCc1ccc2ccccc2n1` [Example 23, 3-(2-hydroxyphenyl)-5-[2-(quinolin-2-yl)ethyl]thieno[2,3-d]pyridazin-4(5H)-one], for which the pIC50 was > 7.00.
For `COc1cccc(-c2csc3cnn(CCc4ccc5ccccc5n4)c(=O)c23)c1` [Example 26, 3-(3-methoxyphenyl)-5-[2-(quinolin-2-yl)ethyl]thieno[2,3-d]pyridazin-4(5H)-one], the pIC50 was 6.30 to 6.70.
For the molecule `N#Cc1cccc(-c2csc3cnn(CCc4ccc5ccccc5n4)c(=O)c23)c1` [Example 29, 3-[4-Oxo-5-(2-quinolin-2-yl-ethyl)-4,5-dihydro-thieno[2,3-d]pyridazin-3-yl}-benzonitrile], the pIC50 is > 7.00.
Turning to `O=c1c2c(-c3cccc(F)c3)csc2cnn1CCc1ccc2ccccc2n1` [Example 30, 3-(3-fluorophenyl)-5-[2-(quinolin-2-yl)ethyl]thieno[2,3-d]pyridazin-4(5H)-one], the pIC50 was 6.70 to 7.00.
Regarding `O=c1c2c(-c3cccc(O)c3)csc2cnn1CCc1ccc2ccccc2n1` [Example 31, 3-(3-hydroxyphenyl)-5-[2-(quinolin-2-yl)ethyl]thieno[2,3-d]pyridazin-4(5H)-one], the pIC50 is 6.70 to 7.00.
`CN(C)C(=O)c1cccc(-c2csc3cnn(CCc4ccc5ccccc5n4)c(=O)c23)c1` [Example 32, N,N-dimethyl-3-{4-oxo-5-[2-(quinolin-2-yl)ethyl]-4,5-dihydrothieno[2,3-d]pyridazin-3-yl}benzamide]: the pIC50 is 6.30 to 6.70.
As for `O=c1c2c(-c3cccs3)csc2cnn1CCc1ccc2ccccc2n1` [Example 34, 5-[2-(quinolin-2-yl)ethyl]-3-(thiophen-2-yl)thieno[2,3-d]pyridazin-4(5H)-one], the pIC50 is 6.70 to 7.00.
In the case of `O=c1c2c(-c3ccc4cc[nH]c4c3)csc2cnn1CCc1ccc2ccccc2n1` [Example 36, 3-(1H-indol-6-yl)-5-[2-(quinolin-2-yl)ethyl]thieno[2,3-d]pyridazin-4(5H)-one], the pIC50 is > 7.00.
For the molecule `O=c1c2c(-c3cncnc3)csc2cnn1CCc1ccc2ccccc2n1` [Example 37, 3-(pyrimidin-5-yl)-5-[2-(quinolin-2-yl)ethyl]thieno[2,3-d]pyridazin-4(5H)-one], the pIC50 is > 7.00.
In the case of `COc1ncccc1-c1csc2cnn(CCc3ccc4ccccc4n3)c(=O)c12` [Example 38, 3-(2-methoxypyridin-3-yl)-5-[2-(quinolin-2-yl)ethyl]thieno[2,3-d]pyridazin-4(5H)-one], the pIC50 is 6.30 to 6.70.
Take `O=c1c2c(-c3cccnc3)csc2cnn1CCc1ccc2ccccc2n1` [Example 39, 3-(pyridin-3-yl)-5-[2-(quinolin-2-yl)ethyl]thieno[2,3-d]pyridazin-4(5H)-one]: the pIC50 is > 7.00.
As to `O=c1c2c(-c3ccoc3)csc2cnn1CCc1ccc2ccccc2n1` [Example 41, 3-(furan-3-yl)-5-[2-(quinolin-2-yl)ethyl]thieno[2,3-d]pyridazin-4(5H)-one], the pIC50 is > 7.00.
Turning to `O=c1c2c(-c3cccc4cnccc34)csc2cnn1CCc1ccc2ccccc2n1` [Example 44, 3-(isoquinolin-5-yl)-5-[2-(quinolin-2-yl)ethyl]thieno[2,3-d]pyridazin-4(5H)-one], the pIC50 is 6.30 to 6.70.
Then `O=c1c2c(-c3cccc4[nH]ccc34)csc2cnn1CCc1ccc2ccccc2n1` [Example 45, 3-(1H-indol-4-yl)-5-(2-quinolin-2-yl-ethyl)-5H-thieno[2,3-d]pyridazin-4-one], with 6.70 to 7.00.
Turning to `O=c1c2c(-c3ccc4c(c3)CCO4)csc2cnn1CCc1ccc2ccccc2n1` [Example 46, 3-(2,3-dihydrobenzofuran-5-yl)-5-(2-quinolin-2-yl-ethyl)-5H-thieno[2,3-d]pyridazin-4-one], the pIC50 is > 7.00.
